Laboratory results as given in patent US11826429B2, “Pharmaceutical composition comprising brinzolamide” (SENTISS PHARMA PRIVATE LIMITED, priority 2014, dated 2023).
Converted amounts (≈) assume the structure as drawn.

What was measured:
[1] = Solubility studies (supernatant filtered through 0.45 syringe filter and analysed); assay type: physicochemical; conditions: for Solubility % w/v, No Further addition to the ingredients of Column 2: autoclaved 121° C./30 min, cooled; for Solubility % w/v, Polysorbate 80 (1%) in addition to the composition of Column 2: plus Polysorbate 80 (1%)
Description: Purified water was taken in Schott bottle. Brinzolamide was added with continuous stirring. After 30 min its pH was adjusted to 6. It was stirred for 24 hours. After which, the supernatant was filtered with 0.45 µm syringe filter and then its solubility was determined.
Purified water was taken in Schott bottle. Brinzolamide was added with continuous stirring. After 30 min its pH was adjusted to 6 and was autoclaved at 121° C./30 min. After autoclaving the sample was cooled to room temperature. It was stirred for 24 hours. After which, the supernatant was filtered with 0.45 µm syringe filter and then its solubility was determined.
Purified water is taken in Schott bottle. Soluplus® is added to it while stirring for 10-15 min. Polysorbate 80 is added to it while stirring for 10-20 min. After it has dissolved completely Brinzolamide is added with continuous stirring. After 30 min pH is checked and adjusted to 6 with 0.1 N NaOH. It is autoclaved at 121° C./30 min. After autoclaving the formulation is cooled to room temperature with stirring.
In order to determine the solubility the sample was centrifuged at 3500 rpm for 5 min followed by filtration through 0.45 µm syringe filter and analysis.

[2] = pH 6.25; cited from earlier work

CCN[C@H]1CN(CCCOC)S(=O)(=O)c2sc(S(N)(=O)=O)cc21 [brinzolamide, (R)-(+)-4-ethylamino-2-(3-methoxypropyl)-3,4-dihydro-2H-thieno[3,2-e]-1,2-thiazine-6-sulfonamide-1,1-dioxide]
Solubility when API is autoclaved and cooled ([1]; pH 6.0): 0.082%
Solubility % w/v, No Further addition to the ingredients of Column 2 ([1]; pH 6): 0.085 % w/v
Solubility % w/v, No Further addition to the ingredients of Column 2 ([1]; pH 6, listed as Autoclaved API): 0.0822 % w/v
Solubility % w/v, PEG 400 (5%) in addition to the composition of Column 2 ([1]; pH 6, autoclaved, plus PEG 400 (5%)): 0.0668 % w/v
Solubility % w/v, Polysorbate 80 (1%) in addition to the composition of Column 2 ([1]; pH 6, autoclaved): 0.2 % w/v
Solubility % w/v, Polysorbate 80 (1%) in addition to the composition of Column 2 ([1]; pH 6, autoclaved, listed as Autoclaved API): 0.2089 % w/v
solubility thermodynamic at 24 h ([1]; purified water, pH adjusted to 6, aqueous buffer, thermodynamic from solid, pH 6.0, not autoclaved, stirred 24 hours, read-out: Solubility determined in the lab): 545 µg/mL (≈ 1420 µM)
Solubility as per literature [2]: 0.059 % w/v
